# Data reported in publication PMC7827085 (Pharmaceutics, 2021).
# Where two headings read alike, the source gives them in different places.
# Legend:
# wild-type ABCG2 = target: T1, wild-type ABCG2 (Homo sapiens, UniProt Q9UNQ0); assay: Hoechst 33342 dye extrusion in HeLa cells expressing wild-type ABCG2; format: cell-based; details: wild-type ABCG2, 0.2 µM Hoechst 33342, full inhibition by 1 µM Ko143
# T1 construct: expressed in transfected cells; host or cells: HeLa (Sleeping Beauty transposon system)
# T1 sequence (Q9UNQ0 1-655): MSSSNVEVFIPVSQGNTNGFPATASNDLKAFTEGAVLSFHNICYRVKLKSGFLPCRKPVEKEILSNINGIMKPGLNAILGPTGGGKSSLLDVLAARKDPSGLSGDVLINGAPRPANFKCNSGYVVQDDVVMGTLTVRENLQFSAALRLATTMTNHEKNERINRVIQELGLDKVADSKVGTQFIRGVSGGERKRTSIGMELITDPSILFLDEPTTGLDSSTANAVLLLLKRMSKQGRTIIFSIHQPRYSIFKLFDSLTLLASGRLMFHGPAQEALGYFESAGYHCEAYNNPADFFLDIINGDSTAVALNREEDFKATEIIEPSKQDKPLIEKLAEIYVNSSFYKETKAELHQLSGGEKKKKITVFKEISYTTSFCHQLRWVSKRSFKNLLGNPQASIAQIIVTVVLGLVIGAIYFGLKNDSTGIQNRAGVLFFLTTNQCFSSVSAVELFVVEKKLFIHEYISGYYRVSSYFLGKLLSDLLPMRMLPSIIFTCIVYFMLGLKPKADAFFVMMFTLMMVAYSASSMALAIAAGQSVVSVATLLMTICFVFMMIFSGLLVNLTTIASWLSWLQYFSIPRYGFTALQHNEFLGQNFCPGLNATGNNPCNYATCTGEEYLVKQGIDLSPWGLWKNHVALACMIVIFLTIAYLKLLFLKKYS
# OATP1A2 [1] = target: T2, OATP1A2 (Homo sapiens, UniProt P46721); assay: cell-based
# T2 sequence (P46721 1-670): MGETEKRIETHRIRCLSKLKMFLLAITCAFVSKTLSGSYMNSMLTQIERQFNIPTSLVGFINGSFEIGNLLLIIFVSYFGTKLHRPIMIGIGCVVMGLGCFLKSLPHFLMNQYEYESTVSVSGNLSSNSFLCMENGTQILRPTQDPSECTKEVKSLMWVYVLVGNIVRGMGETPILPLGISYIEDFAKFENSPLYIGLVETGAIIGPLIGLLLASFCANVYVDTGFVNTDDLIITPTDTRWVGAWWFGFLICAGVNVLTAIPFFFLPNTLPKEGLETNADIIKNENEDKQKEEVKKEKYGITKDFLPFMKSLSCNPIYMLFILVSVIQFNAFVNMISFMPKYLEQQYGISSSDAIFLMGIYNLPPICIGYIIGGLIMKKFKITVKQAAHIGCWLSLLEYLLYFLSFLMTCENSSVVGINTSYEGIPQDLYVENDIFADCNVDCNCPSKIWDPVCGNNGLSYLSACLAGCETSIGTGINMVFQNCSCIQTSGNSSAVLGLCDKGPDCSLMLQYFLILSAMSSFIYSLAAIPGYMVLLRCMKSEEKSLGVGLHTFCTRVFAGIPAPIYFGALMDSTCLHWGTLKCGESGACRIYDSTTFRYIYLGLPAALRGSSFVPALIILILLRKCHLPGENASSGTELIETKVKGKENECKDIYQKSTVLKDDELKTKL
# OATP2B1 [2] = target: T3, OATP2B1 (Homo sapiens, UniProt O94956); assay: cell-based
# T3 sequence (O94956 1-709): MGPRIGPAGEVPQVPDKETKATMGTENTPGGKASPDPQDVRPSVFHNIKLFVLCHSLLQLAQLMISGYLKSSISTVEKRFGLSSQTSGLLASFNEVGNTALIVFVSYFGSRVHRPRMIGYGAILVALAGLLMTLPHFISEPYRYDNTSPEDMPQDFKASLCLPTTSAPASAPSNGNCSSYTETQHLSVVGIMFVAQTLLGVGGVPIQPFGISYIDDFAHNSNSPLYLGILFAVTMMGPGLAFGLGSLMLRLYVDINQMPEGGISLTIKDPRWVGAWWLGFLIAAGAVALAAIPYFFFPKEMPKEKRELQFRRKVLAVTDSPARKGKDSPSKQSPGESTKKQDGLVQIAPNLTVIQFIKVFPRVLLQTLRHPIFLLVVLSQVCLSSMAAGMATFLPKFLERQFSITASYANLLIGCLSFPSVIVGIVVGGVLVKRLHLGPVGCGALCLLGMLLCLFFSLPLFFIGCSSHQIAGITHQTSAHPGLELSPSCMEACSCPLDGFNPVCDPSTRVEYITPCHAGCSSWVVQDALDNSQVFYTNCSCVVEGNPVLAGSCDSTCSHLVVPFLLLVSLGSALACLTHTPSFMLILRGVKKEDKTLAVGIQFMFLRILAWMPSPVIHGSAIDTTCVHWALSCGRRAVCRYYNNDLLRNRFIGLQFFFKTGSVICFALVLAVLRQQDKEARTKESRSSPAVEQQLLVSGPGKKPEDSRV
# ABCB1/MDR1/Pgp = ABCB1/MDR1/Pgp (Homo sapiens, UniProt P08183); details: HEK-293/ABCB1 membrane vesicles
# OATP2B1 [3] = target: T3, OATP2B1; details: A431-OATP2B1 cells, pyranine uptake
# ABCC1/MRP1 = ABCC1/MRP1 (Homo sapiens, UniProt P33527); assay: in vitro
# OATP1A2 [4] = target: T2, OATP1A2; assay: in vitro; details: A431 cells overexpressing OATP1A2, pH 7, probe sulforhodamine 101, 0.5 µM
# OATP2B1 [5] = target: T3, OATP2B1; assay: in vitro; details: A431 cells overexpressing OATP2B1, pH 5.5, probe pyranine, 20 µM
# ABCC1/MRP1, sequence (P33527 whole entry): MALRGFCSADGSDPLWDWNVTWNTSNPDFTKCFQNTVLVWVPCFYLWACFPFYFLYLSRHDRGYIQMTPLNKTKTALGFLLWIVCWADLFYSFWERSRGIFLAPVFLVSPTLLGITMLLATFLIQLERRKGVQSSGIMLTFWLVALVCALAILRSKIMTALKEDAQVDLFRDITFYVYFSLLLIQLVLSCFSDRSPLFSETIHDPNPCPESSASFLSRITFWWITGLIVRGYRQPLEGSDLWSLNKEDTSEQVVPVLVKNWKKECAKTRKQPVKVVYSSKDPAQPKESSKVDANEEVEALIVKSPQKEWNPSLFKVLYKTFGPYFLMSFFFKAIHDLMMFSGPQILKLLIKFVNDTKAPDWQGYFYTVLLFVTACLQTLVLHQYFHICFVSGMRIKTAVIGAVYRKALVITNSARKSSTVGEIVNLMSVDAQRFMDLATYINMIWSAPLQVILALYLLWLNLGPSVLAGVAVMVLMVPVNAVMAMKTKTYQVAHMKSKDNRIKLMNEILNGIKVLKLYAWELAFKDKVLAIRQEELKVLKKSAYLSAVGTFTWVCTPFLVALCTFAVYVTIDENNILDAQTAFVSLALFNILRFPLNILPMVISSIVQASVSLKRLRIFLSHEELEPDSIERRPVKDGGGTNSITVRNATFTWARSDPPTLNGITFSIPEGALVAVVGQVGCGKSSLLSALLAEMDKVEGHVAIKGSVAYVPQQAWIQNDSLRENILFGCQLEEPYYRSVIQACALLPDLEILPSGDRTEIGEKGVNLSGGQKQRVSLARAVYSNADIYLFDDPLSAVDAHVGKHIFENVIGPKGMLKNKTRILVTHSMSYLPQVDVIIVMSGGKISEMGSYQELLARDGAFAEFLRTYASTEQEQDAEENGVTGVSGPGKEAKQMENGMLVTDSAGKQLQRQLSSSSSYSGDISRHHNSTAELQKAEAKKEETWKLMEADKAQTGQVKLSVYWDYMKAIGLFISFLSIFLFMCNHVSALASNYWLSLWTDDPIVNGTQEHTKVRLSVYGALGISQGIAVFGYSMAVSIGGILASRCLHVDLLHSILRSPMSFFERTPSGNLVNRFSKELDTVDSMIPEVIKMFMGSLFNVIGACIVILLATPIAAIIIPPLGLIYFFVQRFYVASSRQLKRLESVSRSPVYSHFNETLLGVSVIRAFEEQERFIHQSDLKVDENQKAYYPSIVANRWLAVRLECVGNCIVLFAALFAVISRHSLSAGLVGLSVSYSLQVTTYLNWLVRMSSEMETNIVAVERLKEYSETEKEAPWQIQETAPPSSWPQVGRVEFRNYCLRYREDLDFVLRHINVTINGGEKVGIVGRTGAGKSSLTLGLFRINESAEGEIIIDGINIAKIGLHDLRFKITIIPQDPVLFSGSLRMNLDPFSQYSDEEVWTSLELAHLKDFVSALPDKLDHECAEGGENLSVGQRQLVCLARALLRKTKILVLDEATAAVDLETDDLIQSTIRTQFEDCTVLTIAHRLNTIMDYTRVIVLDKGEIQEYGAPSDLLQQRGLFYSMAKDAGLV
# ABCB1/MDR1/Pgp, sequence (P08183 whole entry): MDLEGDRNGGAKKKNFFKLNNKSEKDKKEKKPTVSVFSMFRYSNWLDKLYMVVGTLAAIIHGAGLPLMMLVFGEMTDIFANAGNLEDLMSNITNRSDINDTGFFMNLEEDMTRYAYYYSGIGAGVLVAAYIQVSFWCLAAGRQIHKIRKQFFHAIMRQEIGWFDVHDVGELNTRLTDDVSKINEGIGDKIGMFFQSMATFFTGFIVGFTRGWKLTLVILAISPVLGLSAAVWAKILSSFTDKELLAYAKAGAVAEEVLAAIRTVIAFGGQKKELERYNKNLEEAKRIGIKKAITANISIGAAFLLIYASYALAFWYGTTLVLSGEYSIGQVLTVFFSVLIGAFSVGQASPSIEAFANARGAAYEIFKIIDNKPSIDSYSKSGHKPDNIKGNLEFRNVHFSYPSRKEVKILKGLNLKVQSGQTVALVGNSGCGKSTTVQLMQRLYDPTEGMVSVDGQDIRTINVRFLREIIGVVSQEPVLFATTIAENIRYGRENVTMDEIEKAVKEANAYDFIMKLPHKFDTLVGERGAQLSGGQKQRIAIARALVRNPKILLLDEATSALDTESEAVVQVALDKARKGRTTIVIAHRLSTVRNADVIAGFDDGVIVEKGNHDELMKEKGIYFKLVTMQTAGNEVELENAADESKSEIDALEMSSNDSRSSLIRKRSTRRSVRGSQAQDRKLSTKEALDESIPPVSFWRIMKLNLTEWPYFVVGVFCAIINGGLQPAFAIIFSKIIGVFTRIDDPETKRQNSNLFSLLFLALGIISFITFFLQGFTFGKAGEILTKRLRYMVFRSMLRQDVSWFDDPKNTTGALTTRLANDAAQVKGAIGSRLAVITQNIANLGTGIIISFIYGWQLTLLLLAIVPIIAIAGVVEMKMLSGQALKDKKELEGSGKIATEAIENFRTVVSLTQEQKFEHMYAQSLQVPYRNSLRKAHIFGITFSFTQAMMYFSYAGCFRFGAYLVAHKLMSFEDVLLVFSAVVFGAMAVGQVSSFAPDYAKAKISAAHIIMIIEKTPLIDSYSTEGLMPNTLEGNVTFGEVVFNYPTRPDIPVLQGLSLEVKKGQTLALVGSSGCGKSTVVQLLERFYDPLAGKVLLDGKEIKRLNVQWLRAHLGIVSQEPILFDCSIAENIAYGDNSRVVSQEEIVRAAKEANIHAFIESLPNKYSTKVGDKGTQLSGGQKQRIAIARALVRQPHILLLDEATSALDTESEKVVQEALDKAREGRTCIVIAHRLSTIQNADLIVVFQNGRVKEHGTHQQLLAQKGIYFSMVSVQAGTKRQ
SMILES,Effect on Hst dye extrusion by ABCG2 in HeLa cells (in words) (wild-type ABCG2),IC50 (OATP1A2 [1]) [µM],IC50 (OATP2B1 [2]) [µM],Effect on ABCB1 ATP-dependent NMQ uptake (in words) (ABCB1/MDR1/Pgp),Effect on OATP2B1 activity (in words) (OATP2B1 [3]),IC50 at 3 min (ABCC1/MRP1) [µM],"IC50 at 3 min (ABCC1/MRP1; inverted membrane vesicles from Sf9 cells expressing ABCC1, probe 3H-estradiol-17b-glucuronide (ETGB), 0.2 µM) [µM]",IC50 at 10 min (OATP1A2 [4]) [µM],IC50 at 15 min (OATP2B1 [5]) [µM]
CCC(CC)COC(=O)[C@H](C)N[P@](=O)(OC[C@H]1O[C@@](C#N)(c2ccc3c(N)ncnn23)[C@H](O)[C@@H]1O)Oc1ccccc1 [remdesivir],slight effect at relatively high concentrations,3.8,3.8,–,–,–,–,–,–
CCN(CCO)CCCC(C)Nc1ccnc2cc(Cl)ccc12 (stereo not shown) [hydroxychloroquine],–,18.9,84,practically no effect,only modest inhibition,> 50,–,–,–
NC(=O)c1nc(F)c[nH]c1=O [favipiravir],–,–,–,no inhibitory effect,no interaction,–,> 50,> 50,> 50
